Test results published in article PMC7180842, “Efficacy of Topical Treatment with (−)-Epigallocatechin Gallate, A Green Tea Catechin, in Mice with Cutaneous Leishmaniasis” (Molecules, 2020).
≈ marks a conversion by molar mass, not a printed value. Values belong to the compound of their own block, whether it stands above or below them.

Key:
[1] = tested on: promastigotes of L. (V.) braziliensis; parameters: method as in earlier work; conditions: cited from earlier work
[2] = tested on: promastigotes of L. (L.) amazonensis; parameters: method as in earlier work; conditions: cited from earlier work
[3] = Macrophage cytotoxicity screening (MTT assay); assay type: cell-based; conditions: human, THP1 cells differentiated to macrophages
Method: The cytotoxicity of EGCG, EGC, GCG and GC was evaluated in a human monocytic cell line derived from an acute monocytic leukemia patient (THP1). The cells (3 x 10^4/150 µL) were first differentiated to macrophages with 10 ng/mL of phorbol myristate acetate for 24 h at 37 °C in a 5% CO2 95% air mixture. […] The controls were incubated with RPMI 1640 medium (Gibco, Grand Island, NY, USA). The viability of the macrophages was determined by the MTT assay (Nacalai tesque, Kyoto, Japan). Briefly, 50 μL of MTT (2 mg/mL) was added to each well and, after 4 h of incubation at 37 °C, the reaction was stopped dissolving the formazan crystals with 100 μL/well of dimethyl sulfoxide (DMSO). The relative amount of formazan produced by viable macrophages was determined using a spectrophotometer at 570 nm. The percentage of viable cells was calculated according to the formula: OD treated culture–OD blank x 100/OD control–OD blank as was described previously. The CC50 was calculated for each compound as the concentration of compound that reduces cell growth by 50%.
(§1) The GraphPad Prism 5.0 software (GraphPad Software Inc., San Diego, CA, USA) was employed to carry out calculations of the IC50 and CC50 values by a nonlinear regression. Multiple comparisons of lesions’ sizes between groups were made with a one-way analysis of variance (ANOVA) followed by Tukey test. The statistical analysis of the parasite burden data obtained by the limiting dilution assay was done using ELIDA software, which analyses data through the Poisson distribution and by the X^2 test. p < 0.05 was considered significant. The data are representative of two separate experiments in vivo.

[4] = tested on: intracellular amastigotes of L. (L.) amazonensis; assay: In vitro antiamastigote activity in infected THP1-derived macrophages; assay type: cell-based, Leishmania (Leishmania) amazonensis; conditions: for SI (selectivity index, ratio CC50 THP1/IC50 Leishmania): CC50 THP1/IC50 intracellular amastigotes; for SI (selectivity index, ratio CC50 THP1/IC50 Leishmania) / IC50: 48 h; for IC50: Leishmania amazonensis, Macrophage; for IC50 / Intracellular Amastigotes IC50: macrophages infected with L. (L.) amazonensis, 48 h of treatment, 34 °C
Method: THP1 cells (2 × 10^5/mL) were differentiated to macrophages with 10 ng/mL of phorbol myristate acetate and placed in Lab-Tek eight chamber slides for 24 h at 37 °C in a 5% CO2 95% air mixture. Adherent macrophages were infected with L. (L.) amazonensis at a ratio of four parasites per macrophage and incubated at 34 °C in a 5% CO2 95% air mixture during 24 h. After infection, the cells were washed with pre-warmed PBS to remove free parasites. A new medium with different concentrations of EGCG, EGC, GCG and GC (2.3 to 130 µg/mL) and Gl (2.5 to 80 µg Sb^v/mL) was added to each well. The positive controls were infected cells cultured under the presence of complete RPMI-1640 medium. The chambers were returned to the CO2 incubator for an additional 48 h at 34 °C, 5% CO2 [17]. The cells were stained with Diff Quik (Biopur S.R.L., Rosario, Argentina), and the results were expressed as the concentration of compound to inhibit the 50% of the growth (IC50) of the intracellular amastigotes.
as §1

[5] = tested on: intracellular amastigotes of L. (L.) amazonensis; parameters: method as in PMID 22735546; conditions: infected macrophage cultures incubated at 37 °C; cited from earlier work
L. (V.) braziliensis = tested on: L. (V.) braziliensis; parameters: method as in PMID 24106750, PMID 22735546; conditions: EGCG oral treatment, BALB/c mice; cited from earlier work
[6] = tested on: intracellular amastigotes of L. (V.) braziliensis; parameters: method as in PMID 25144225; conditions: infected macrophage cultures incubated at 37 °C; cited from earlier work
L. (L.) donovani = tested on: L. (L.) donovani; parameters: method as in PMID 16569852; conditions: cited from earlier work
L. (L.) amazonensis = assay: In vivo cutaneous leishmaniasis model, infected ear dermis of BALB/c mice; conditions: 18 days; for Parasite burden inhibition: once a day, six times a week, from week six postinfection, vs control group; for Lesion size: week 10, vs control group, p < 0.05
Method: Female BALB/c mice of six weeks old (weight, 20 to 25 g) were randomly separated into three groups of five animals and were inoculated by intradermal via in their right ear with 5 × 10^3 (20 µL) infective promastigotes of L. (L.) amazonensis (late log phase of growth). The animals were housed in groups of five in metal cages under a controlled environmental condition (12:12 h light/dark cycle and 23 °C room temperature) with food and water ad libitum.
At week six postinfection, mice received the treatments as follow: group 1, treated with EGCG in USP hydrophilic ointment (15%), group 2, treated with 120 mg Sb^v/kg/d of Gl administered by intraperitoneal route, and group 3, control mice (without treatment). EGCG was uniformly mixed in USP hydrophilic cream (Yoshida Pharmaceutical Co., Saitama, Japan) (15% w/w) and was topically applied (20 mg/lesion). EGCG ointment was prepared daily. The treatments were given during 18 days, once a day, six times a week, until the end of the treatments (9th week). The efficacy of treatments was determined by measuring the lesions’ sizes (mm^2) with a digital caliper weekly (150 mm; Digimess) and by quantifying the parasite burden with the limit dilution assay as was described previously.
as §1

[7] = intraperitoneal 120 mg Sb^v/kg/d

Compound: Oc1cc(O)c2c(c1)O[C@H](c1ccc(O)c(O)c1)[C@@H](O)C2 [(+)-catechin]
Leishmanicidal activity / growth of promastigotes [1]: did not inhibit the growth
Leishmanicidal activity / growth of promastigotes [2]: did not inhibit the growth

Compound: O=C(O[C@@H]1Cc2c(O)cc(O)cc2O[C@H]1c1ccc(O)c(O)c1)c1cc(O)c(O)c(O)c1 [(−)-catechin gallate]
Leishmanicidal activity / growth of promastigotes [1]: did not inhibit the growth
Leishmanicidal activity / growth of promastigotes [2]: did not inhibit the growth

Compound: Oc1cc(O)c2c(c1)O[C@H](c1ccc(O)c(O)c1)[C@H](O)C2 [(−)-epicatechin]
Leishmanicidal activity / growth of promastigotes [1]: did not inhibit the growth
Leishmanicidal activity / growth of promastigotes [2]: did not inhibit the growth

Compound: Oc1cc(O)c2c(c1)O[C@H](c1cc(O)c(O)c(O)c1)[C@H](O)C2 [EGC, (−)-epigallocatechin]
Leishmanicidal activity / growth of promastigotes [1]: leishmanicidal activity
CC50 at 48 h [3]: 121 ± 20 µg/mL (≈ 394 µM)
Leishmanicidal activity / growth of promastigotes [2]: leishmanicidal activity
SI (selectivity index, ratio CC50 THP1/IC50 Leishmania) [4]: ≥2.7
SI (selectivity index, ratio CC50 THP1/IC50 Leishmania) ([4]; listed as (−)-epigallocatechin): > 1
IC50 [4]: < 59.6 µg/mL
Intracellular Amastigotes IC50 [4]: ≥44.3 µg/mL

IC50 [4]: < 59.6 µg/mL
Intracellular Amastigotes IC50 [4]: 59.6 ± 9.3 µg/mL
Compound: O=C(O[C@@H]1Cc2c(O)cc(O)cc2O[C@@H]1c1cc(O)c(O)c(O)c1)c1cc(O)c(O)c(O)c1 [EGCG, (−)-Epigallocatechin gallate]
IC50 against intracellular amastigotes [5]: 0.74 µg/mL (≈ 1.61 µM)
Leishmanicidal activity / growth of promastigotes [1]: leishmanicidal activity
Parasite burden inhibition (L. (V.) braziliensis): 92.1%
IC50 against intracellular amastigotes [6]: 1.57 µg/mL (≈ 3.43 µM)
IC50 against L. (L.) donovani (L. (L.) donovani): 19.1 µg/mL (≈ 41.7 µM)
CC50 at 48 h [3]: 88.9 ± 21.9 µg/mL (≈ 194 µM)
Leishmanicidal activity / growth of promastigotes [2]: leishmanicidal activity
Parasite burden inhibition (L. (L.) amazonensis; topical 15% EGCG in USP hydrophilic ointment, 20 mg/lesion): 80.4%
Lesion size (L. (L.) amazonensis; topical 15% EGCG): significant reduction of the lesion size
SI (selectivity index, ratio CC50 THP1/IC50 Leishmania) [4]: 1.5
SI (selectivity index, ratio CC50 THP1/IC50 Leishmania) ([4]; listed as (−)-Epigallocatechin gallate): > 1

Compound: Oc1cc(O)c2c(c1)O[C@@H](c1cc(O)c(O)c(O)c1)[C@H](O)C2 [GC, (−)-gallocatechin]
Leishmanicidal activity / growth of promastigotes [1]: leishmanicidal activity
CC50 at 48 h [3]: 115 ± 37.1 µg/mL (≈ 376 µM)
Leishmanicidal activity / growth of promastigotes [2]: leishmanicidal activity
SI (selectivity index, ratio CC50 THP1/IC50 Leishmania) [4]: 1.2
IC50 [4]: 93.5 ± 5 µg/mL (≈ 305 µM)

Compound: O=C(O[C@@H]1Cc2c(O)cc(O)cc2O[C@H]1c1cc(O)c(O)c(O)c1)c1cc(O)c(O)c(O)c1 [GCG, (−)-gallocatechin gallate]
Leishmanicidal activity / growth of promastigotes [1]: leishmanicidal activity
IC50 against L. (L.) donovani (L. (L.) donovani): 8.9 µg/mL (≈ 19.4 µM)
CC50 at 48 h [3]: 94.9 ± 11.8 µg/mL (≈ 207 µM)
Leishmanicidal activity / growth of promastigotes [2]: leishmanicidal activity
SI (selectivity index, ratio CC50 THP1/IC50 Leishmania) [4]: 1.4
IC50 [4]: 67.5 ± 9.5 µg/mL (≈ 147 µM)

Compound: Meglumine antimoniate [reference compound]
Parasite burden inhibition (L. (L.) amazonensis; [7]): 85.1%
Lesion size (L. (L.) amazonensis; [7]): reduced the lesion size
